# Measurements taken from US20230392180A1, “MICROSCOPIC IMAGING AND ANALYSES OF EPIGENETIC LANDSCAPE” (Sanford Burnham Prebys Medical Discovery Institute, priority 2020, published 2023).
# “Also recorded” adds a separate entry of the source.
# Experiments:
# [1] = female, human
# H3K27ac and H3K27me3 = H3K27ac and H3K27me3 immunofluorescence intensity; type: cell-based, human; conditions: GBM2, low concentrations (<30 μM), compared with Pan HDAC inhibitors TSA, SAHA
# GBM2 cells [2] = experiment: RNAseq and transcriptomic analysis; type: cell-based, human
# Protocol: RNAseq and transcriptomic analysis: Total RNA was isolated from GBM2 cells using the RNeasy Kit (Qiagen), 0.5 ug total RNA was used for isolation of mRNAs and library preparation. Library preparation and sequencing was conducted by the SBP genomics core (Sanford-Burnham NCI Cancer Center Support Grant P30 CA030199). PolyA RNA was isolated using the NEBNext® Poly(A) mRNA Magnetic Isolation Module and barcoded libraries were made using the NEBNext® Ultra II™ Directional RNA Library Prep Kit for Illumina® (NEB, Ipswich MA). Libraries were pooled and single end sequenced (1X75) on the Illumina NextSeq 500 using the High output V2 kit (Illumina). Read data was processed in BaseSpace. Reads were aligned to Homo sapiens genome (hg19) using STAR aligner with default settings. Differential transcript expression was determined using the Cufflinks Cuffdiff package. Go term enrichment analysis was conducted using PANTHER v11 using all genes identified as differentially expressed following either serum or Bmp4 treatment. For heat maps showing fold change in expression the FPKM values in each population were divided by the average FPKM values of untreated GBM2. To highlight differences in expression levels between serum and Bmp4 treated GBM2 cells the FPKM values in each sample were z-scored. Zscore=(FPKMObservation−FPKMAverage)/FPKMSD (FPKMObservation−FPKM value obtain through sequencing; FPKMAverage−average of all FPKM values in all samples for a certain gene; FPKMSD−standard deviation of FPKM values for a certain gene). Heat maps were generated using Microsoft Excel conditional formatting function.
# Correlation of transcriptomic and image-based profiles: Euclidean distance between untreated, serum or Bmp4 treated GBM2 cells (triplicates for each) was calculated using either transcriptomic data (FPKM) or texture features. Pearson's correlation coefficient (R) was transformed to a t-value using the formula (t=R×SQRT(N−2)/SQRT(1−R2) where N is the number of samples, and R is Pearson correlation coefficient, and the p-value was calculated using Excel tdist(t) function. For compound prioritization, the Euclidean distance between compound treated and serum or Bmp4 treated GBM2 cells was calculated based on either transcriptomic data (FPKM) or image features. The average distance to both serum and Bmp4 treatments was normalized to the average distance of untreated cells to serum and Bmp4.
# RNAseq and transcriptomic analysis: Total RNA was isolated from GBM2 cells using the RNeasy Kit (Qiagen), 0.25 μg total RNA was used to isolate mRNAs and for library preparation. Library preparation and sequencing were conducted by the SBP genomics core (Sanford-Burnham NCI Cancer Center Support Grant P30 CA030199). PolyA RNA was isolated using the NEBNext® Poly(A) mRNA Magnetic Isolation Module, and barcoded libraries were made using the NEBNext® Ultra II™ Directional RNA Library Prep Kit for Illumina® (NEB, Ipswich MA). Libraries were pooled and single-end sequenced (1×75) on the Illumina NextSeq 500 using the High-Output V2 kit (Illumina). Read data, processed in BaseSpace, were aligned to Homo sapiens genome (hg19) using STAR aligner with default settings. Differential transcript expression was determined using the Cufflinks Cuffdiff package. For heat maps showing fold change in expression, FPKM values in each HDACi-treated population were divided by the average FPKM values of DMSO-treated GBM2 and values shown as log 2 of the ratio. Go enrichment analysis was conducted using PANTHER v11 using all genes identified as differentially expressed following either serum or Bmp4 treatment. To highlight differences in expression levels between serum- and Bmp4-treated GBM2 cells, FPKM values in each sample were z-scored. Zscore=(FPKMObservation−FPKMAverage)/FPKMSD (FPKMObservation−FPKM value obtain through sequencing; FPKMAverage−average of all FPKM values in all samples for a certain gene; FPKMSD−standard deviation of FPKM values for a certain gene). […]
# GBM2 cells [3] = experiment: Epigenetic Drug Screening (MIEL); type: cell-based, human
# Source text: Data processing: The image features-based profile for each cell population (e.g., cell types, treatments, technical repetition) was represented using a vector (center of distribution vectors) in which every element is the average value of all cells in that population for a particular feature. The vector's length is given by the number of features chosen (262 per histone modification). Raw feature values were normalized by z-scoring to the average and standard deviation of all populations being compared. All cells in each population were used to calculate center vectors, and each population contained at least 50 cells. Activity level for each drug was determined by calculating the distance from DMSO. […] Euclidean distance of each compound and each DMSO replicate to the DMSO center vector was calculated. Distances were z-scored to the average distance and standard deviation of DMSO replicates from the DMSO center vector. Transcriptomic-based profile for each cell population was represented using a vector in which every element is the z-scored FPKM value for a single gene in that population. […] Raw feature values for all center vectors of all populations in each plate were normalized to the plate-wise DMSO vector; normalized feature values were z-scored as above. […] Activity levels were calculated as above. […] Cell counts were z-scored against the average and standard deviation of all DMSO replicates. […]
# [4] = Variance of chromatin and epigenetic landscape (VITA) score; type: in vivo, mice; conditions: after treatment
# Source text: In some instances, in addition to computing the values of individual cell nucelli in multidimensional space of statistical texture features, coefficient of variance (CV) is used, defined as the ratio of the standard deviation a sigma to the mean p, namely. CV for each field of view, well, technical replicate, and biological replicate such organs tissues and cells from individual mice could be computed based on individual nuclei and the results are stable using 200-2000 nuclei per experimental replica (e.g., individual wells). […] This means that quantitatively CV can be informative values serving as a quantitative measurement of individual organ, tissue, or cell type from individual animals.
# C57BL/6J male mice = experiment: miBioAge (MIEL-CLOCK) after doxorubicin injection; type: in vivo
# Protocol: This can be shown by employing classical treatments such as doxorubicin (DOX), paclitaxel (PTX), or temozolomide (TMZ), known to promote hallmarks of aging to compare miBioAge readouts in blood (PBMC and CD3+ cells) and liver hepatocytes to chronologically matched untreated controls. Blood was collected on day 0 (retro-orbital) from 3-month old C57BL/6J male mice and 22-month old C57BL/6J male mice. On day 1, doxorubicin was injected into the experimental mice. All controls received PBS injection. Blood was collected on day 20 (retro-orbital) from all mice and liver hepatocytes on day 21. Cells were analyzed 21 days after treatment to avoid the effects of acute stress response and favor the aging-related phenomena.
# TPCs = experiment: Growth rate of treated glioblastoma cells; conditions: 3 days of serum or Bmp4 treatment
# GBM cell lines = experiment: Immunostaining of core transcription factors and GFAP after serum or Bmp4 treatment; type: cell-based, human
# Protocol: Differentiation treatment: For TPC differentiation treatments cells were cultured in DMEM:F12 Neurobasal media (1:1), 1% B27 supplement, 10% BIT 9500, 1 mM glutamine supplemented with either Bmp4 (100 ng/ml; R&D Systems) or FBS (10%).
# Cell staining: Cells were rinsed with PBS and fixed in 4% paraformaldehyde in PBS for 10 min at room temperature. After blocking with PBSAT (2% BSA and 0.5% Triton X-100 in PBS) for 1 h at room temperature, the cells were incubated overnight at 4° C. with primary antibodies diluted in PBSAT. The primary antibodies are listed in Table 2, and the appropriate fluorochrome-conjugated secondary antibodies were used at 1:500 dilution. Nuclear co-staining was performed by incubating cells with Hoechst-33342 nuclear dye.
# Microscopy and image analysis: Unless stated otherwise, for MIEL analysis cells were imaged on an Opera QEHS high-content screening system (PerkinElmer) using ×40 water immersion objectives. Images collected on the Opera were analyzed using Acapella 2.6 (PerkinElmer). […] Features of nuclear morphology, fluorescence intensity inter-channel co-localization, and texture features (Image moments, Haralick, Threshold Adjacency Statistics) were calculated using custom algorithms (scripts available from www.andrewslab.ca). […] Between 3 and 8 fields per well were acquired and analyzed using Acapella 2.6 (PerkinElmer). […]
molecule,measurement,setting,value
CC(=O)S[C@@H]1CC2=CC(=O)CC[C@]2(C)[C@H]2CC[C@@]3(C)[C@@H](CC[C@@]34CCC(=O)O4)[C@H]12 [spironolactone],estimated concentrations reached following repeated administration,[1],~10 µM
CCCC(CCC)C(=O)O [valproic acid],H3K27ac and H3K27me3 immunofluorescence intensity,H3K27ac and H3K27me3,no increase in histone acetylation or decrease in histone methylation
same,transcriptomic changes (genes altered vs DMSO),"GBM2 cells [2]; GBM2, 24 hours, valproic acid 15 μM",not reflected
same,functional classification by discriminant analysis (MIEL),"GBM2 cells [3]; 10 μM, 24 hours, 85 compounds",active but were misclassified
same,epigenetic changes detected by MIEL,"GBM2 cells [3]; 24-hour treatment, low concentrations (<30 μM)",detectable epigenetic changes
"COc1cccc2c1C(=O)c1c(O)c3c(c(O)c1C2=O)C[C@@](O)(C(=O)CO)C[C@@H]3O[C@H]1C[C@H](N)[C@H](O)[C@H](C)O1 [DOX, doxorubicin]",VITA score,[4],trend for the increase; also recorded: increases
same,miBioAge distance,"C57BL/6J male mice; 3-month, compared to 3-month control",increases
same,miBioAge signatures in CD3+ cells,C57BL/6J male mice; blood collected on day 20,trend shift
same,miBioAge signatures in PBMC,C57BL/6J male mice; blood collected on day 20,trend shift
same,miBioAge signatures in liver hepatocytes,C57BL/6J male mice; cells analyzed 21 days after treatment,towards the old age
"Bmp4: Bmp4 (100 ng/ml; R&D Systems), positive control inducing TPC differentiation",growth rate of TPCs,TPCs,reduced; also recorded: attenuate
same,GFAP expression,GBM cell lines,increased
same,"expression of transcription factors Sox2, Sall2, Brn2 and Olig2","GBM cell lines; 3 days treatment, cell line dependent",down regulated; also recorded: downregulated
same,expression of most genes of the transcriptomic stemness signature,"GBM2 cells [2]; GBM2, 3 days treatment, vs untreated cells",reduced
Oc1ccc(O)cc1 [Hydroquinone],estimated concentrations reached following repeated administration,[1],~10 µM
